In patent US9056874B2, “Complement pathway modulators and uses thereof” (NOVARTIS AG, priority 2012, dated 2015):

biological target: factor B (Homo sapiens, UniProt P00751); assay: factor B inhibition assay of Biological Example 1; assay type: biochemical; set-up: CVF-Bb complex prepared from purified cobra venom factor (1 μM), recombinant human complement factor B; made in house; host or cells: drosophila cells (factor B); E. coli (factor D used to form the complex); conditions: IC50 (nM), assay of Biological Example 1 (Table 1)
Sequence (P00751 260-764 limits assumed): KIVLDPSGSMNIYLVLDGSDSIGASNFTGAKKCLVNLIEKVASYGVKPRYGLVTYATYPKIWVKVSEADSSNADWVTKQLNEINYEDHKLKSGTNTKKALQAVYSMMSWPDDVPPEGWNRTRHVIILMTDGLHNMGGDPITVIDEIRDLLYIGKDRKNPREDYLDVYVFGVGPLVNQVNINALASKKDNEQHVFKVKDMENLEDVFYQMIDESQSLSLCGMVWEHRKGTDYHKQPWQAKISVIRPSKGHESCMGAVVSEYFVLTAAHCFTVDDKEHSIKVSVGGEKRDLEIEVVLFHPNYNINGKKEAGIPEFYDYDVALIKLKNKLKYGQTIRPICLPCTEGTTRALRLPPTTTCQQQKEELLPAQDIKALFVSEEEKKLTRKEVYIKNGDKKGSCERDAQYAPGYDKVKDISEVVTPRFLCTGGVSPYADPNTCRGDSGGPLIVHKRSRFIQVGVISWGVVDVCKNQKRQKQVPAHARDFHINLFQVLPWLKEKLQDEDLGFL
Sequence (Q91132 23-649 partner limits assumed): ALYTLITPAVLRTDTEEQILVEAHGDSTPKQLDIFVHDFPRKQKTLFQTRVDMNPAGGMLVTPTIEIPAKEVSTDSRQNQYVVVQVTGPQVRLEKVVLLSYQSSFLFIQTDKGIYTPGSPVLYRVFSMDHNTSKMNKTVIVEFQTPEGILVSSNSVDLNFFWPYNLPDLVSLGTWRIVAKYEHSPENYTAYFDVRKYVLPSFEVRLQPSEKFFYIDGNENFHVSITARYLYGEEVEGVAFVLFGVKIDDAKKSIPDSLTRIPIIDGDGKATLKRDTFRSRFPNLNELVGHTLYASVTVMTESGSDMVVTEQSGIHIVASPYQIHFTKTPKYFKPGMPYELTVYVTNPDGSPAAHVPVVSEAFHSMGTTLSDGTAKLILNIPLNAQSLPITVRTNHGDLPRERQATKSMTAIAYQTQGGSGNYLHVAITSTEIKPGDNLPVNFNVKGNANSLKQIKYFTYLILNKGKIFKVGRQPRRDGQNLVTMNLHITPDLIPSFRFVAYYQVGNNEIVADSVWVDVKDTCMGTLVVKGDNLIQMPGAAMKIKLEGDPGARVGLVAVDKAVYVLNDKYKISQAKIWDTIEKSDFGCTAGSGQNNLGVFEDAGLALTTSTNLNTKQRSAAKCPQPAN
Sequence (Q91132 733-984 partner limits assumed): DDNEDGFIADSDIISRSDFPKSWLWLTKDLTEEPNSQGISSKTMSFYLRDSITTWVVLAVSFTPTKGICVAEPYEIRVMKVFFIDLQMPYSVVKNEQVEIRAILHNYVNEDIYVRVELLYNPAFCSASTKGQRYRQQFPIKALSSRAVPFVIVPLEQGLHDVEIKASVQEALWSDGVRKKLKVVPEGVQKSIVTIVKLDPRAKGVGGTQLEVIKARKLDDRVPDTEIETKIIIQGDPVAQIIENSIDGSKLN
Sequence (Q91132 1264-1642 partner limits assumed): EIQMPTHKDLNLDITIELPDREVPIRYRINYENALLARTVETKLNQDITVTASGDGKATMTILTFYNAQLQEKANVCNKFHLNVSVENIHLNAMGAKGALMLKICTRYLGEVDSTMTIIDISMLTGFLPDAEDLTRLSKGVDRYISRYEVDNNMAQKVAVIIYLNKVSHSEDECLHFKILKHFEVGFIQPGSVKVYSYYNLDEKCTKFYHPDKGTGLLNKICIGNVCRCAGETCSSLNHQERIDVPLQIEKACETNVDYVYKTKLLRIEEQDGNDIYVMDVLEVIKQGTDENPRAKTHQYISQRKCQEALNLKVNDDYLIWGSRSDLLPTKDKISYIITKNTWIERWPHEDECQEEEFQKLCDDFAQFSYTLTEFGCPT

For `COc1cc(C)c2[nH]cc(Cl)c2c1C(C)(O)c1nc2cc(C#N)ccc2[nH]1` (single isomer, unassigned) [Example 29-B, (+) or (−)-2-(1-(3-chloro-5-methoxy-7-methyl-1H-indol-4-yl)-1-hydroxyethyl)-1H-benzo[d]imidazole-5-carbonitrile], which IC50 is on record?
The IC50 was 2570 nM.

`Cc1cc(C)c2[nH]ccc2c1C(C)(c1nc2cc(C#N)ccc2[nH]1)N(C)C` (racemic) [Example 104-B, (±)-2-(1-(5,7-dimethyl-1H-indol-4-yl)-1-(dimethylamino)ethyl)-1H-benzo[d]imidazole-5-carbonitrile] was tested. Which IC50 did it give?
Its IC50 is 260 nM.

For `Cc1cc(S(C)(=O)=O)c(C(N)(c2nc3cc(C#N)ccc3[nH]2)C(F)(F)F)c2cc[nH]c12` (single isomer, unassigned; (-)) [17-B b) (−), (−)-2-(1-amino-2,2,2-trifluoro-1-(7-methyl-5-(methylsulfonyl)-1H-indol-4-yl)ethyl)-1H-benzo[d]imidazole-5-carbonitrile], which IC50 is on record?
The IC50 was 1330 nM.

For `Cc1cc(CO)c(C(O)c2nc3cc(C#N)ccc3[nH]2)c2cc[nH]c12` (single isomer, unassigned; (-)) [65-D b) (−), (−)-2-(hydroxy(5-(hydroxymethyl)-7-methyl-1H-indol-4-yl)methyl)-1H-benzo[d]imidazole-5-carbonitrile], which IC50 is on record?
The IC50 was 270 nM.

How did the IC50 turn out when `CCc1cc(C)c2[nH]ccc2c1C(O)c1nc2cc(C#N)ccc2[nH]1` (single isomer, unassigned; (-)) [67-A b) (−), (−)-2-((5-ethyl-7-methyl-1H-indol-4-yl)(hydroxy)methyl)-1H-benzo[d]imidazole-5-carbonitrile] was run?
The IC50 was 160 nM.

How did the IC50 turn out when `CCc1cc(C)c2[nH]cc(-c3ccn[nH]3)c2c1Cc1nc2cc(C#N)ccc2[nH]1` [Example 116-F, 2-((5-Ethyl-7-methyl-3-(1H-pyrazol-5-yl)-1H-indol-4-yl)methyl)-1H-benzo[d]imidazole-5-carbonitrile] was run?
Its IC50 is 190 nM.

With `CCOC(c1nc2cc(C#N)ccc2[nH]1)c1c(C)cc(C)c2[nH]ccc12` (racemic) [Example 73, (±)-2-((5,7-Dimethyl-1H-indol-4-yl)(ethoxy)methyl)-1H-benzo[d]imidazole-5-carbonitrile] as the molecule, how does the IC50 read?
Its IC50 is 1270 nM.

How did the IC50 turn out when `CNC(C)(c1nc2cc(C#N)ccc2[nH]1)c1c(OC)cc(C)c2[nH]ccc12` (single isomer, unassigned; (-)) [42-D b) (−), (−)-2-(1-(5-methoxy-7-methyl-1H-indol-4-yl)-1-(methylamino)ethyl)-1H-benzo[d]imidazole-5-carbonitrile] was run?
Its IC50 is 5 nM.

`CCc1cc(C)c2[nH]ccc2c1C(=O)c1nc2cc(C#N)ccc2[nH]1` [Example 78, 2-(5-Ethyl-7-methyl-1H-indole-4-carbonyl)-1H-benzo[d]imidazole-5-carbonitrile] was tested. Which IC50 did it give?
Its IC50 is 640 nM.

With `COc1cc2[nH]c(Cc3c(C)cc(C)c4[nH]ccc34)nc2cc1C#N` [Example 63-J] as the molecule, how does the IC50 read?
Its IC50 is 83200 nM.

For `Cc1cc(C(F)(F)F)c(C(C)(O)c2nc3cc(C#N)ccc3[nH]2)c2cc[nH]c12` (racemic) [Example 83-B, (±)-2-(1-hydroxy-1-(7-methyl-5-(trifluoromethyl)-1H-indol-4-yl)ethyl)-1H-benzo[d]imidazole-5-carbonitrile], which IC50 is on record?
Its IC50 is 1440 nM.

Which IC50 does the source give for `COc1cc(C)c2[nH]ccc2c1C(OC)(c1nc2cc(C#N)ccc2[nH]1)C1CC1` (stereo not drawn) [Example 27-D] here?
The IC50 was 20 nM.

For `Cc1cc(C)c2[nH]cc(Cl)c2c1Cc1nc2cc(C#N)ccc2[nH]1` [Example 86, 2-((3-Chloro-5,7-dimethyl-1H-indol-4-yl)methyl)-1H-benzo[d]imidazole-5-carbonitrile], which IC50 is on record?
Its IC50 is 270 nM.

Which IC50 does the source give for `Cc1cc(S(C)(=O)=O)c(C(C)(N)c2nc3cc(C#N)ccc3[nH]2)c2cc[nH]c12` (single isomer, unassigned; (-)) [13-E b) (−), (−)-2-(1-Amino-1-(7-methyl-5-(methylsulfonyl)-1H-indol-4-yl)ethyl)-1H-benzo[d]imidazole-5-carbonitrile] here?
The IC50 was 1410 nM.

How did the IC50 turn out when `COc1cc(F)c2[nH]ccc2c1Cc1nc2cc(C#N)ccc2[nH]1` [Example 21-B, 2-((7-Fluoro-5-methoxy-1H-indol-4-yl)methyl)-1H-benzo[d]imidazole-5-carbonitrile] was run?
Its IC50 is 3140 nM.

How did the IC50 turn out when `Cc1cc(C2CC2)c(C(N)(c2nc3cc(C#N)ccc3[nH]2)C(F)(F)F)c2cc[nH]c12` (single isomer, unassigned; (+)) [107-D b) (+), (+)-2-(1-amino-1-(5-cyclopropyl-7-methyl-1H-indol-4-yl)-2,2,2-trifluoroethyl)-1H-benzo[d]imidazole-5-carbonitrile] was run?
The IC50 was 50 nM.

With `Cc1cc(CO)c2[nH]ccc2c1Cc1nc2cc(C#N)ccc2[nH]1` [Example 113-F, 2-((7-(Hydroxymethyl)-5-methyl-1H-indol-4-yl)methyl)-1H-benzo[d]imidazole-5-carbonitrile] as the molecule, how does the IC50 read?
The IC50 was 9600 nM.

How did the IC50 turn out when `Cc1cc(Br)c2[nH]ccc2c1Cc1nc2cc(C#N)ccc2[nH]1` [Example 112-E, 2-((7-Bromo-5-methyl-1H-indol-4-yl)methyl)-1H-benzo[d]imidazole-5-carbonitrile] was run?
The IC50 was 4150 nM.

Which IC50 does the source give for `Cc1cc(C)c2c(c1Cc1nc3cc(C#N)ccc3[nH]1)CCN2` [Example 123, 2-((5,7-Dimethylindolin-4-yl)methyl)-1H-benzo[d]imidazole-5-carbonitrile] here?
The IC50 was 920 nM.

`Cc1cc(C)c2[nH]cc(-c3cccnc3)c2c1C(O)c1nc2cc(C#N)ccc2[nH]1` (single isomer, unassigned) [120 b) (tr = 3.20 min), (−) or (+)-2-((5,7-dimethyl-3-(pyridin-3-yl)-1H-indol-4-yl)(hydroxy)methyl)-1H-benzo[d]imidazole-5-carbonitrile] was tested. Which IC50 did it give?
The IC50 was 29000 nM.

With `CCc1cc(C)c2[nH]cc3c2c1C(O)(c1nc2cc(C#N)ccc2[nH]1)CC3` (single isomer, unassigned) [94 b) (tr = 6.3 min), (−) or (+)-2-(6-ethyl-5-hydroxy-8-methyl-1,3,4,5-tetrahydrobenzo[cd]indol-5-yl)-1H-benzo[d]imidazole-5-carbonitrile] as the molecule, how does the IC50 read?
Its IC50 is 1590 nM.

How did the IC50 turn out when `Cc1cc(C2CC2)c(C(O)(c2nc3cc(C#N)ccc3[nH]2)C(F)(F)F)c2cc[nH]c12` (single isomer, unassigned; (-)) [80-E b) (−), (−)-2-(1-(5-cyclopropyl-7-methyl-1H-indol-4-yl)-2,2,2-trifluoro-1-hydroxyethyl)-1H-benzo[d]imidazole-5-carbonitrile] was run?
Its IC50 is 10 nM.

`Cc1cc(CC(C)C)c(C(C)(O)c2nc3cc(C#N)ccc3[nH]2)c2cc[nH]c12` (single isomer, unassigned; (+)) [79-D b) (+), (+)-2-(1-hydroxy-1-(5-isobutyl-7-methyl-1H-indol-4-yl)ethyl)-1H-benzo[d]imidazole-5-carbonitrile] was tested. Which IC50 did it give?
The IC50 was 2240 nM.

Which IC50 does the source give for `CCc1cc(C)c2[nH]ccc2c1C(C)(OC)c1nc2cc(C#N)ccc2[nH]1` (single isomer, unassigned; (+)) [84-C b) (+), (+)-2-(1-(5-ethyl-7-methyl-1H-indol-4-yl)-1-methoxyethyl)-1H-benzo[d]imidazole-5-carbonitrile] here?
Its IC50 is 150 nM.

How did the IC50 turn out when `COc1cc(C)c2[nH]ccc2c1C(OCC(=O)O)(c1nc2cc(C#N)ccc2o1)C(F)(F)F` (racemic) [Example 129-B, (±)-2-(1-(5-cyanobenzo[d]oxazol-2-yl)-2,2,2-trifluoro-1-(5-methoxy-7-methyl-1H-indol-4-yl)ethoxy)acetic acid] was run?
Its IC50 is 7860 nM.

With `COc1cc(C)c2[nH]ccc2c1C(O)(c1nc2cc(C#N)ccc2o1)C(F)(F)F` (single isomer, unassigned; (+)) [128-B b) (+), (+)-2-(2,2,2-trifluoro-1-hydroxy-1-(5-methoxy-7-methyl-1H-indol-4-yl)ethyl)benzo[d]oxazole-5-carbonitrile] as the molecule, how does the IC50 read?
The IC50 was 1990 nM.

For `Cc1cc(C)c2[nH]ccc2c1C(O)c1nc2cc(C#N)ccc2[nH]1` (single isomer, unassigned; (+)) [64-C b) (+), (+)-2-((5,7-dimethyl-1H-indol-4-yl)(hydroxy)methyl)benzo[d]imidazole-5-carbonitrile], which IC50 is on record?
Its IC50 is 340 nM.

`COC(c1nc2cc(C#N)ccc2[nH]1)(c1c(S(C)(=O)=O)cc(C)c2[nH]ccc12)C(F)(F)F` (single isomer, unassigned; (-)) [15-D b) (−), (−)-2-(2,2,2-trifluoro-1-methoxy-1-(7-methyl-5-(methylsulfonyl)-1H-indol-4-yl)ethyl)-1H-benzo[d]imidazole-5-carbonitrile] was tested. Which IC50 did it give?
The IC50 was 680 nM.

`CCc1cc(C)c2[nH]ccc2c1C(O)c1nc2cc(C#N)ccc2[nH]1` (single isomer, unassigned; (+)) [67-A b) (+), (+)-2-((5-ethyl-7-methyl-1H-indol-4-yl)(hydroxy)methyl)-1H-benzo[d]imidazole-5-carbonitrile] was tested. Which IC50 did it give?
The IC50 was 1160 nM.

Which IC50 does the source give for `COc1cc(C)c2[nH]ccc2c1C(C)(OC)c1nc2cc(C#N)ccc2[nH]1` (single isomer, unassigned; (+)) [27-B b) (+), (+)-2-(1-methoxy-1-(5-methoxy-7-methyl-1H-indol-4-yl)ethyl)-1H-benzo[d]imidazole-5-carbonitrile] here?
The IC50 was 60 nM.

How did the IC50 turn out when `CCc1cc(C)c2[nH]cc(-c3ccccc3)c2c1C(O)c1nc2cc(C#N)ccc2[nH]1` (racemic) [Example 117-F, (±)-2-((5-Ethyl-7-methyl-3-phenyl-1H-indol-4-yl)(hydroxy)methyl)-1H-benzo[d]imidazole-5-carbonitrile] was run?
Its IC50 is 70 nM.

With `Cc1cc(CN)c(Cc2nc3cc(C#N)ccc3[nH]2)c2cc[nH]c12` [Example 60-B, 2-((5-(Aminomethyl)-7-methyl-1H-indol-4-yl)methyl)-1H-benzo[d]imidazole-5-carbonitrile] as the molecule, how does the IC50 read?
Its IC50 is 5780 nM.

Which IC50 does the source give for `Cc1cc(C)c2[nH]cc(-c3cnn(C)c3)c2c1C(O)c1nc2cc(C#N)ccc2[nH]1` (single isomer, unassigned) [119 b) (tr = 2.35 min), (−) or (+)-2-((5,7-dimethyl-3-(1-methyl-1H-pyrazol-4-yl)-1H-indol-4-yl)(hydroxy)methyl)-1H-benzo[d]imidazole-5-carbonitrile] here?
The IC50 was 12600 nM.
